Results from patent US5616573A, “Glucocorticoids” (Schering Aktiengesellschaft, priority 1993, dated 1997).
Where a SMILES comes first, the peptide text is derived from it. The star is where a group is joined. Methylprednisolone(17-OCOEt) = CCC(=O)O[C@]1(C(=O)CO*)CC[C@H]2[C@@H]3C[C@H](C)C4=CC(=O)C=C[C@]4(C)[C@H]3[C@@H](O)C[C@@]21C; X1 = C[C@H]1C[C@@H]2[C@H]([C@@H](O)C[C@@]3(C)[C@H]2CC[C@]3(O)C(=O)CO*)[C@@]2(C)C=CC(=O)C=C12; X5 = C[C@]12CCC(=O)C=C1CC[C@@H]1[C@@H]2[C@@H](O)C[C@@]2(C)[C@H]1CC[C@]2(O)C(=O)CO*; Fmoc = O=C(OCC1c2ccccc2-c2ccccc21)*; Boc = CC(C)(C)OC(=O)*

What was measured:
Esterases of Rat Skin = assay: Cleavage in the Homogenate of Normal Rat Skin (unspecific cleavage by esterases of rat skin); assay type: in vitro ADME; settings: percent of hydrolysis rate of 6α-methylprednisolone-17-propionate-21-acetate; approximately 100 μmol/l, pH=7.4, 37° C.
Description: (§1) The homogenate of the skin of male rats (0.1 mol/l of phosphate buffer, pH=7.4) is centrifuged for 20 minutes at 10,000 g. The supernatant is adjusted in phosphate buffer to a protein concentration of 3 mg/ml. The test substances in 20 μl of ethanol are added to 1 ml of this homogenate. The final concentration of the corticoid derivatives is approximately 100 μmol/l. The incubation takes place for different periods at 37° C. At the end of incubation, the samples are extracted three times with 3 ml of chloroform. The combined extracts are evaporated to dryness under nitrogen and taken up with 100 μl of ethanol. The ethanolic solutions are mixed with the same volume of water and the saponification products are separated by HPLC (RP 18, acetonitrile/water-gradient, detection 240 nm). The relative hydrolysis rate is indicated in percent of the hydrolysis rate of the 6α-methylprednisolone-17-propionate-21-acetate.

Leukocyte Elastase = molecular target: T1, Leukocyte Elastase (Homo sapiens, UniProt P08246); assay: Cleavage of Glucocorticoid-21-Oligopeptide Esters by Leukocyte Elastase in the lysate of human neutrophilic granulocytes; assay type: biochemical; settings: lysate of human neutrophilic granulocytes, 10^6 cells per ml, 1 hour at 37° C.; Fmoc-Ala-Ala-Pro-Val-O-MPP is used as reference
T1 construct: also pure human sputum elastase (Elastin Products)
T1 sequence (P08246 30-267): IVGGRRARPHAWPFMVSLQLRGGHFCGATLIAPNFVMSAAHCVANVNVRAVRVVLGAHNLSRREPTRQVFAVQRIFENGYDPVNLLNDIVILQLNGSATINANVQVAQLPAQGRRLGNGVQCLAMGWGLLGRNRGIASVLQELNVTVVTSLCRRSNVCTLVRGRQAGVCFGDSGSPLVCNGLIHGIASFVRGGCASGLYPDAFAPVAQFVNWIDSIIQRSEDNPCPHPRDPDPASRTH
Description: as §1
Polymorphonuclear granulocytes are isolated from donor blood. The cells are lysed in a density of 10^6 cells per ml. 1 ml each of the lysate is mixed with 20 μl of ethanolic corticoid solution (5 mmol/l) After 1 hour of incubation at 37° C., the samples are extracted three times with 3 ml of chloroform and worked up as described above for HPLC analysis. The cleavage of the prodrugs according to the invention can be inhibited under these test conditions by the addition of the specific elastase inhibitor MeO-succinyl-Ala-Ala-Pro-Val-chloromethylketone to 90%. Furthermore, the compounds are also hydrolyzed by pure human sputum-elastase (elastin products).

rat ear = assay: Local antiinflammatory action: modified rat ear test according to Tonelli (croton oil); assay type: in vivo; settings: topical, * = significant (p < 0.05); for Edema [% inhibition]: ear weight, 16 hours after irritant; for Infiltration [% inhibition]: granulocytic infiltrate (myeloperoxidase and leukocyte-elastase), 16 hours
Description: The antiinflammatory activity of the corticoid-21-oligopeptide esters is performed in a modified rat ear test according to Tonelli. The modifications are based on changes of irritant solution (4% croton oil, 10% DMSO in ethanol), the type of administration (application of the solution with pipette) and the evaluation of the test 16 hours after administration of the irritant solution. At this time, both the inhibition of the edema by measuring the ear weight and the inhibition of the granulocytic infiltrate by measuring the granulocyte marker myeloperoxidase and leukocyte-elastase in the ear homogenate can be determined. The group size was 6 animals in each case.

[1] = molecular target: T2, rat glucocorticoid receptor (Rattus norvegicus, UniProt P06536); assay: Binding to the Glucocorticoid Receptor: competitive displacement of tritiated dexamethasone in rat thymus cytosol; settings: quotient of concentrations of test substance and dexamethasone displacing 50% of labeled dexamethasone; 2 hours at 4° C.; lower KF = better binding
T2 sequence (P06536 1-795): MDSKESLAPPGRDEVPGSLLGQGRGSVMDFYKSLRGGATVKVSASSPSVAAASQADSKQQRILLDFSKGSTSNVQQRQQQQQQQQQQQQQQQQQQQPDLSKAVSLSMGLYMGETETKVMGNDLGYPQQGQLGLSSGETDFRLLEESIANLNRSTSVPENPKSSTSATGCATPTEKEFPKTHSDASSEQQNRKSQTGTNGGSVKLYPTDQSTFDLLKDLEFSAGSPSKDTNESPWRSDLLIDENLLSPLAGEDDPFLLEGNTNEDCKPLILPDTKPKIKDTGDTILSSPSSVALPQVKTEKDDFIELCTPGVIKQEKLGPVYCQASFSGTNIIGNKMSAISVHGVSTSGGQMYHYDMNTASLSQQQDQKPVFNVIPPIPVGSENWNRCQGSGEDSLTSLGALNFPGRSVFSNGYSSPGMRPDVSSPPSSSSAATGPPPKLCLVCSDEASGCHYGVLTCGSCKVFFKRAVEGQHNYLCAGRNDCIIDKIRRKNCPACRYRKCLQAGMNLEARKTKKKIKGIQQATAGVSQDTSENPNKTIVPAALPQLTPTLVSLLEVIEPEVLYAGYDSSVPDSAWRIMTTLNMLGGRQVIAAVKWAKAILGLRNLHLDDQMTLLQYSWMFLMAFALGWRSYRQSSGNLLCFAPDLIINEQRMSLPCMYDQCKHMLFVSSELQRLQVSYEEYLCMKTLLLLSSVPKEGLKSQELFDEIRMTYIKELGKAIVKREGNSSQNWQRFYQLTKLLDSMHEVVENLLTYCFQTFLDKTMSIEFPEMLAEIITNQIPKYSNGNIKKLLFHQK
Description: The binding of the substances according to the invention to the rat glucocorticoid receptor is determined by competitive displacement of tritiated dexamethasone from the receptor binding. Different concentrations of the glucocorticoid esters are incubated for 2 hours at 4° C. in the presence of a constant concentration of tritium-labeled dexamethasone with rat thymus cytosol. After the incubation time, the non-protein-bound steroids are adsorbed on activated carbon and the activated carbon is centrifuged off. The radioactivity in the supernatant is used as a measurement for the amount of receptor-bound dexamethasone.
From the measurements, the concentrations of the respective corticoid derivative are calculated, which are necessary to displace 50% of the labeled dexamethasone from the receptor binding. Competition factor (KF) is the quotient of these calculated concentrations for the test substance and that of dexamethasone.

[2] = concentration 0.003 (unit not given)
[3] = concentration 0.03 (unit not given)
[4] = concentration 0.3 (unit not given)

Structure (SMILES)	Relative Hydrolysis Rate [%] (Esterases of Rat Skin)	Relative Hydrolysis Rate [%] (Leukocyte Elastase)	Edema [% inhibition] (rat ear; [2]) [%]	Infiltration [% inhibition] (rat ear; [2]) [%]	Edema [% inhibition] (rat ear; [3]) [%]	Infiltration [% inhibition] (rat ear; [3]) [%]	Edema [% inhibition] (rat ear; [4]) [%]	Infiltration [% inhibition] (rat ear; [4]) [%]	Competition Factor [KF] [1]
CCC(=O)O[C@]1(C(=O)COC(=O)[C@@H](NC(=O)[C@@H]2CCCN2C(=O)[C@H](C)NC(=O)[C@H](C)NC(=O)OC(C)(C)C)C(C)C)CC[C@H]2[C@@H]3C[C@H](C)C4=CC(=O)C=C[C@]4(C)[C@H]3[C@@H](O)C[C@@]21C [Example 3, N-(N-(N-(N-(1,1-Dimethylethoxycarbonyl)-L-alanyl)-L-alanyl)-L -prolyl)-L-valine [11β,21-dihydroxy-3,20-dioxo-6α-methyl-17-propionyloxy-pregna-1,4-dien-21-yl] ester] (Boc-AAPV-{Methylprednisolone(17-OCOEt)})	50	160-190%	17	11	51	43	81	77	–
CCC(=O)O[C@]1(C(=O)COC(=O)[C@@H](NC(=O)[C@@H]2CCCN2C(=O)[C@H](C)NC(=O)[C@H](C)NC(=O)OCC2c3ccccc3-c3ccccc32)C(C)C)CC[C@H]2[C@@H]3C[C@H](C)C4=CC(=O)C=C[C@]4(C)[C@H]3[C@@H](O)C[C@@]21C [Example 4, N-(N-(N-(N-(9H-Fluoren-9-ylmethoxycarbonyl)-L-alanyl)-L-alanyl) -L-prolyl)-L-valine [11β,21-dihydroxy-3,20-dioxo-6α-methyl-17-propionyloxy-pregna-1,4-dien-21-yl] ester] (Fmoc-AAPV-{Methylprednisolone(17-OCOEt)})	4	100%	30	16	48	42	78	66	–
CC(C)[C@H](NC(=O)[C@@H]1CCCN1C(=O)[C@H](C)NC(=O)[C@H](C)NC(=O)OCC1c2ccccc2-c2ccccc21)C(=O)OCC(=O)[C@@]1(O)CC[C@H]2[C@@H]3C[C@H](C)C4=CC(=O)C=C[C@]4(C)[C@H]3[C@@H](O)C[C@@]21C [Example 22] (Fmoc-AAPV-X1)	6	370%	–	–	–	–	–	–	–
CC(C)[C@H](NC(=O)[C@@H]1CCCN1C(=O)[C@H](C)NC(=O)[C@H](C)NC(=O)OCC1c2ccccc2-c2ccccc21)C(=O)OCC(=O)[C@@]1(O)CC[C@H]2[C@@H]3CCC4=CC(=O)CC[C@]4(C)[C@H]3[C@@H](O)C[C@@]21C [Example 29, N-(N-(N-(N-(9H-Fluoren-9-yl-methoxycarbonyl)-L-alanyl)-L-alanyl) -L-prolyl)-L-valine [11β,17,21-trihydroxy-3,20-dioxo-pregn-4-en-21-yl] ester] (Fmoc-AAPV-X5)	–	–	–	–	–	–	–	–	k.k. [n.c.]
CCCCC(=O)O[C@]1(C(=O)COC(=O)[C@@H](NC(=O)[C@@H]2CCCN2C(=O)[C@H](C)NC(=O)[C@H](C)NC(=O)OCC2c3ccccc3-c3ccccc32)C(C)C)[C@@H](C)C[C@H]2[C@@H]3CCC4=CC(=O)C=C[C@]4(C)[C@@]3(F)[C@@H](O)C[C@@]21C [Example 39, N-(N-(N-(N-(9H-Fluoren-9-yl-methoxycarbonyl)-L-alanyl)-L-alanyl) -L-prolyl)-L-valine [9α-fluoro-11β,21-dihydroxy-16β-methyl-3,20-dioxo-17-valeroyloxy-pregna-1,4-dien-21-yl] ester]	0	42%	–	–	–	–	–	–	–
